Assay results as given in patent publication US20040063661A1, “Treatment of statin side effects” (priority 2000, published 2004).
“And” between values parts separate entries of the source, which are not always exact repeats. Equal values may be shown once. Marks after values point to notes of the source that are not given here.

Experiments:
Type in all cases: in vivo, human
[1] = test system: creatine kinase; assay: Pilot clinical study Q10: blood creatine kinase concentration (measure of muscle trauma)
Procedure: (§1) Commencing at WK(0) and continuing through the study the patients were asked to take a daily dose of 300 mg of Coenzyme Q10 (Q10), which was administered as […] sof gel capsules (commercially available from R. P. Scherer), morning and evening.

[2] = test system: statin induced muscle pain; assay: Pilot clinical study Q10: McGill Pain Questionnaire (PRI, PPI); conditions: for PRI (Pain Rating Index), first score / PRI (Pain Rating Index), second score: patients on statin therapy; for PRI (Pain Rating Index), first score / PRI (Pain Rating Index), second score / PPI (Present Pain Intensity): one line per patient
From the text: (§2) Table 2 outlines data for four patients (numbered #1-#4) undergoing statin therapy for treatment of hypercholesterolemia and who had reported suffering from varying levels of muscular pain and fatigue. This study is ongoing, but the results below follow the study with these four patients from week minus1 (WK(-1)) to week plus 4 (WK(+4)). Patients were either contacted or attended the clinic at weeks -1, 0, +1, +2 and +4. At the clinic on the first week (WK(-1)) details of the patients' statin medication were recorded and daily doses were noted. Patients were also scored for pain using the McGill Pain Questionnaire (Melzack, R., 1975 “The McGill Pain Questionnaire: Major Properties and Scoring Methods”. Pain 1:277-299, the disclosure of which is included herein in its entirety by way of reference) scales for Pain Rating Index (PRI) and Present Pain Intensity (PPI). In the PRI index, which comprises two scores, higher scores indicate increasing levels of pain. In the PPI index present pain is given a score of 0 to 5, where 0 represents no pain and 5 represents excruciating pain. Patients were also scored at WK(-1) for fatigue using the Fatigue Impact Scale (Fisk, J. D. et al, 1994, “Measuring the functional impact of fatigue: Initial Validation of the Fatigue Impact Scale”, Clinical Infectious Disease, 18 (Suppl 1):[…]-83, the disclosure of which is included herein in its entirety by way of reference). Questionnaires to determine PRI, PPI and FIS scores were conducted thereafter at weeks +1, +2 and +4. At weeks +1 and +2 the patients were contacted by telephone and were asked to mail their self assessment questionnaires to the clinic. Commencing at WK(0) and continuing through the study the patients were asked to take a daily dose of 300 mg of Coenzyme Q10 (Q10), which was administered as […] sof gel capsules (commercially available from R. P. Scherer), morning and evening.

[3] = test system: serum cholesterol, HDL-cholesterol or LDL-cholesterol and triglyceride levels; assay: Pilot clinical study Q10: serum lipids levels under statin therapy; conditions: patients #1-#4; 300 mg Q10 daily; WK(0) vs WK(+4)
Procedure: as §1

[4] = test system: muscle pain; assay: Case report: Coenzyme Q10 in a patient with unexplained muscle pain and viral infections (Example 1)
From the text: The patient had suffered for a number of years from unexplained muscle pain which started in the legs and gradually spread to other skeletal muscles. During the worst of the symptoms, the patient was unable to raise their arms above their head and was unable to drive a car. Walking was also difficult. […] The patient was eventually diagnosed as suffering from a number of viral infections: cytomegalovirus (CMV), Epstein-Barr virus (EBV) and hepatitis A. The patient was started on a regimen of 150 mg per day of Coenzyme Q10. […] The improvement was reported as permanent provided that the patient kept taking Q10.

[5] = Pilot clinical study Q10: blood Q10 level (patient compliance); conditions: one line per patient
Procedure: as §1

[6] = test system: statin induced fatigue; assay: Pilot clinical study Q10: Fatigue Impact Scale (FIS); conditions: for FIS (Fatigue Impact Scale): one line per patient
From the text: as §2

[7] = test system: chronic fatigue syndrome; assay: Case report: self assessed well being, day to day tasks and muscle pain in a chronic fatigue syndrome patient on Q10 (Example 2); conditions: for Feeling of Well Being / Absence of Muscle Pain / Heavy Work (1 hour) / Light Work/Walking / Sedentary Work / Work: teacher / Wellness Score (out of 60): Q10 2×50 mg per day; for Feeling of Well Being: self rated 0-10 (10 = best); for Absence of Muscle Pain: self rated 0-10 (10 = complete absence of pain); for Wellness Score (out of 60): sum of the six self ratings
Procedure: The patient had suffered for a number of years from chronic fatigue syndrome. The condition was severe enough such that they were unable to pursue their teaching career and day to day tasks were generally performed with a general sense of fatigue and muscle pain. Muscle pain was generally controlled with over the counter (ie. non-prescription) analgesics containing 500 mg paracetamol and 8 mg codeine phosphate, 2-4 tablets per day. Table 1 provides a summary of the patient's self assessed levels of general sense of well being, ability to perform day to day tasks and level of (or relative absence of) muscle pain during a dosing regimen of 2×50 mg per day of Q10(50 mg taken each at breakfast and dinner). Levels were rated by the patient on a scale of 0-10, with 0 representing severe incapacity or pain and 10 representing the complete absence of pain or fatigue/excellent performance. FIG. 1 depicts the self assessed (absence of) pain levels for the patient, over a period of 30 days, on a scale of […], where 0 is severe pain and 10 relates to an absence of pain (wellness). On day 1 the patient commenced taking 100 mg of Q10 per day until day 10 when the dosage was increased to 200 mg per day

[8] = test system: alanine aminotransferase; assay: Pilot clinical study Q10: blood alanine aminotransferase concentration (measure of liver damage)
Procedure: as §1

[9] = 300 mg Q10 daily to WK(+4), a few patients
[10] = WK(+1), 300 mg Q10 daily from WK(0)
[11] = WK(+2), 300 mg Q10 daily from WK(0)
[12] = WK(+4), 300 mg Q10 daily from WK(0)
[13] = 150 mg per day of Coenzyme Q10, within several days
[14] = Day 1, self rated 0-10 (10 = excellent performance)
[15] = Day 2, self rated 0-10 (10 = excellent performance)
[16] = Day 3, self rated 0-10 (10 = excellent performance)
[17] = Day 4, self rated 0-10 (10 = excellent performance)
[18] = Day 5, self rated 0-10 (10 = excellent performance)
[19] = Week 2, self rated 0-10 (10 = excellent performance)
[20] = Week 12, self rated 0-10 (10 = excellent performance)

COC1=C(OC)C(=O)C(C/C=C(\C)CC/C=C(\C)CC/C=C(\C)CC/C=C(\C)CC/C=C(\C)CC/C=C(\C)CC/C=C(\C)CC/C=C(\C)CC/C=C(\C)CCC=C(C)C)=C(C)C1=O [Q10, Coenzyme Q10]
CK (creatine kinase concentration) ([1]; WK(0), baseline before Q10, normal range 0-200, one line per patient): 175 units/L and 69 units/L and 39 units/L and 160 units/L
CK (creatine kinase concentration) ([1]; WK(+4), 300 mg Q10 daily from WK(0), normal range 0-200, one line per patient): 127 units/L and 78 units/L and 32 units/L and 148 units/L
change in PRI scores (overall statement) [2, 9]: Marginal decreases
PRI (Pain Rating Index), first score [2, 10]: 22 and 0 and 48 and 19
PRI (Pain Rating Index), second score [2, 10]: 10 and 0 and 21 and 7
PPI (Present Pain Intensity) ([2]; WK(+1), 300 mg Q10 daily from WK(0), score 0 to 5): 2 and 0 and 3 and 1
PRI (Pain Rating Index), first score [2, 11]: 25 and 9 and 54 and 10
PRI (Pain Rating Index), second score [2, 11]: 11 and 6 (2×) and 23
PPI (Present Pain Intensity) ([2]; WK(+2), 300 mg Q10 daily from WK(0), score 0 to 5): 2 (3×) and 1
PRI (Pain Rating Index), first score [2, 12]: 8 and 4 and 46 and 9
PRI (Pain Rating Index), second score [2, 12]: 4 and 1 and 20 and 5
PPI (Present Pain Intensity) ([2]; WK(+4), 300 mg Q10 daily from WK(0), score 0 to 5): 2 (3×) and 1
PRI (Pain Rating Index), first score ([2]; WK(−1), baseline before Q10): 15 and 10 and 69 and 12
PRI (Pain Rating Index), second score ([2]; WK(−1), baseline before Q10): 5 (2×) and 3 and 30
PPI (Present Pain Intensity) ([2]; WK(−1), baseline before Q10, score 0 to 5 (5 = excruciating pain)): 2
effect on statin therapy with respect to serum cholesterol, HDL-cholesterol or LDL-cholesterol and triglyceride levels [3]: did not significantly affect statin therapy
general sense of well being (patient report) [4, 13]: general sense of well being has improved
muscle pain (patient report) [4, 13]: muscle pain had subsided noticeably
pain after the patient recommenced the Q10 treatment ([4]; treatment recommenced): the pain diminished within a short period
muscle pain after the patient stopped taking the Q10 ([4]; treatment stopped on one occasion): the muscle pain returned
Q10 (blood level) ([5]; WK(0), baseline before Q10): 0.59 µg/mL and 0.46 µg/mL and 1.39 µg/mL
Q10 (blood level) [5, 12]: 2.42 µg/mL and 2.49 µg/mL and 1.92 µg/mL and 2.22 µg/mL
change in FIS scores (overall statement) [6, 9]: Marginal decreases
FIS (Fatigue Impact Scale) [6, 10]: 42 and 19 and 91 and 18
FIS (Fatigue Impact Scale) [6, 11]: 47 and 44 and 90 and 16
FIS (Fatigue Impact Scale) [6, 12]: 43 and 6 and 90 and 16
FIS (Fatigue Impact Scale) ([6]; WK(−1), baseline before Q10, patients on statin therapy): 48 and 39 and 104 and 15
self assessed (absence of) pain levels, FIG. 1 ([7]; 30 day period, 100 mg of Q10 per day from day 1, 200 mg per day from day 10): increasing absence of muscle pain
Feeling of Well Being ([7]; Day 1): 4
Absence of Muscle Pain ([7]; Day 1, patient required 2x analgesic tablets): 3*
Heavy Work (1 hour) [7, 14]: 0
Light Work/Walking [7, 14]: 4
Sedentary Work [7, 14]: 3
Work: teacher [7, 14]: 0
Wellness Score (out of 60) ([7]; Day 1): 14
Feeling of Well Being ([7]; Day 2): 4
Absence of Muscle Pain ([7]; Day 2, patient required 2 × 2 (4) analgesic tablets): 3**
Heavy Work (1 hour) [7, 15]: 0
Light Work/Walking [7, 15]: 4
Sedentary Work [7, 15]: 3
Work: teacher [7, 15]: 0
Wellness Score (out of 60) ([7]; Day 2): 14
Feeling of Well Being ([7]; Day 3): 5
Absence of Muscle Pain ([7]; Day 3): 7
Light Work/Walking [7, 16]: 6
Sedentary Work [7, 16]: 4
Work: teacher [7, 16]: 0
Heavy Work (1 hour) ([7]; Day 3, self rated 0-10, patient performed only ½ hour heavy work): 3***
Wellness Score (out of 60) ([7]; Day 3): 25
Feeling of Well Being ([7]; Day 4): 6
Absence of Muscle Pain ([7]; Day 4): 7
Light Work/Walking [7, 17]: 6
Sedentary Work [7, 17]: 5
Work: teacher [7, 17]: 0
Heavy Work (1 hour) ([7]; Day 4, self rated 0-10, patient performed only ½ hour heavy work): 3***
Wellness Score (out of 60) ([7]; Day 4): 27
Feeling of Well Being ([7]; Day 5): 7
Absence of Muscle Pain ([7]; Day 5): 7
Light Work/Walking [7, 18]: 7
Sedentary Work [7, 18]: 6
Work: teacher [7, 18]: 0
Heavy Work (1 hour) ([7]; Day 5, self rated 0-10, patient performed only ½ hour heavy work): 3***
Wellness Score (out of 60) ([7]; Day 5): 30
Feeling of Well Being ([7]; Week 2): 7
Absence of Muscle Pain ([7]; Week 2): 7
Heavy Work (1 hour) [7, 19]: 5
Light Work/Walking [7, 19]: 7
Sedentary Work [7, 19]: 7
Work: teacher [7, 19]: 3
Wellness Score (out of 60) ([7]; Week 2): 36
Feeling of Well Being ([7]; Week 12): 9
Absence of Muscle Pain ([7]; Week 12): 9
Heavy Work (1 hour) [7, 20]: 8
Light Work/Walking [7, 20]: 9
Sedentary Work [7, 20]: 9
Work: teacher [7, 20]: 8
Wellness Score (out of 60) ([7]; Week 12): 52
ALT (alanine aminotransferase concentration) ([8]; WK(0), baseline before Q10, normal range 0-40, one line per patient): 31 units/L and 14 units/L and 33 units/L
ALT (alanine aminotransferase concentration) ([8]; WK(+4), 300 mg Q10 daily from WK(0), normal range 0-40, one line per patient): 25 units/L and 11 units/L and 19 units/L and 35 units/L
